This passage reports IC50 results from patent US12275729B2 (Merck Sharp & Dohme LLC, priority 2017, dated 2025).

The target of one test is IDO1 (Homo sapiens, UniProt P14902). The experiment in a line: IDO1 Cellular Assay in HeLa Cells Stimulated with IFNγ. Type of test: cell-based. Particulars: about 48 hours, read-out: Hela IC50.
Sequence of IDO1 (P14902 whole entry): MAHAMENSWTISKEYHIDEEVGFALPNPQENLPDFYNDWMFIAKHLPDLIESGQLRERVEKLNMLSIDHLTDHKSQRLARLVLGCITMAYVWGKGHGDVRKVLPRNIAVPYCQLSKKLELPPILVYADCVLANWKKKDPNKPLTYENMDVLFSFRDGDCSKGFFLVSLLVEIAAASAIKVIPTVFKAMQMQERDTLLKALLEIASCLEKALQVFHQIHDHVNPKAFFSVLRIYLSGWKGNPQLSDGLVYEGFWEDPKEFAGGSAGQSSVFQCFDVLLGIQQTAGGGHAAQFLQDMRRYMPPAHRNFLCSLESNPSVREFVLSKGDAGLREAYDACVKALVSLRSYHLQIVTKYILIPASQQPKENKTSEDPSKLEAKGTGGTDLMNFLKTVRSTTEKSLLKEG
With `CC(NC(=O)c1ccc(F)cc1)c1ccc2c(n1)C(F)CCN2C(=O)C1CC1` (single isomer, unassigned) [Example 202, N-(1-(5-(cyclopropanecarbonyl)-8-fluoro-5,6,7,8-tetrahydro-1,5-naphthyridin-2-yl)ethyl)-4-fluorobenzamide], the IC50 was 396 nM. As for `CC(NC(=O)c1ccc(F)cc1)c1ccc2c(n1)C(F)CCN2C(=O)C1CC1` (single isomer, unassigned) [Example 203, N-(1-(5-(cyclopropanecarbonyl)-8-fluoro-5,6,7,8-tetrahydro-1,5-naphthyridin-2-yl)ethyl)-4-fluorobenzamide], the IC50 was 7510 nM. Take `O=C(Nc1ccc(Cl)cc1)C1(c2ccc3c(n2)CCCN3c2cccc(C(F)(F)F)n2)CCC1` [Example 409, N-(4-chlorophenyl)-1-(5-(6-(trifluoromethyl)pyridin-2-yl)-5,6,7,8-tetrahydro-1,5-naphthyridin-2-yl)cyclobutane-1-carboxamide]: the IC50 was determined as 1.74 nM.

For the compound `CC(C)C(=O)N1CCCc2cc(C(C)C(=O)Nc3ccc(F)cc3)ccc21` (stereo not shown) [Example 40, N-(4-fluorophenyl)-2-[1-(2-methylpropanoyl)-1,2,3,4-tetrahydroquinolin-6-yl]propanamide], the IC50 came out at 5 nM.

Regarding `O=C(NC1(c2ccc3c(n2)CCCN3c2ccccn2)CC1)c1ccc(F)cc1` [Example 247, 4-fluoro-N-(1-(5-(pyridin-2-yl)-5,6,7,8-tetrahydro-1,5-naphthyridin-2-yl)cyclopropyl)benzamide], the IC50 turned out to be 13.9 nM. Turning to `CC(C)C(C(=O)Nc1ccc(F)cc1)c1ccc2c(n1)CCCN2C(=O)C1CC1` (stereo not shown) [Example 263, 2-(5-(cyclopropanecarbonyl)-5,6,7,8-tetrahydro-1,5-naphthyridin-2-yl)-N-(4-fluorophenyl)-3-methylbutanamide], the IC50 amounted to 34.9 nM.

For `O=C(c1cnn(C2CC2)c1)N1CCCc2cc(C3(C(=O)Nc4ccc(F)cc4)CCC3)ccc21` [Example 113, 1-[1-(1-cyclopropyl-1H-pyrazole-4-carbonyl)-1,2,3,4-tetrahydroquinolin-6-yl]-N-(4-fluorophenyl)cyclobutane-1-carboxamide], the IC50 was determined as 65.8 nM. Consider `COC(=O)N1CCCc2nc(C3(C(=O)Nc4ccc(Cl)cc4)CCC3)ccc21` [Example 218, methyl 6-{1-[(4-chlorophenyl)carbamoyl]cyclobutyl}-3,4-dihydro-1,5-naphthyridine-1(2H)-carboxylate], for which the IC50 was found to be 5.1 nM. As to `CC(NC(=O)c1ccc(F)cc1)c1ccc2c(n1)CCCN2C(=O)c1ccn(C2CC2)n1` (stereo in doubt) [Example 144, N-{(1R)-1-[5-(1-cyclopropyl-1H-pyrazole-3-carbonyl)-5,6,7,8-tetrahydro-1,5-naphthyridin-2-yl]ethyl}-4-fluorobenzamide], the concentration for half-maximal inhibition (IC50) was found to be 18.1 nM. On to `CC(C(=O)Nc1ccc(F)cc1)c1ccc2c(n1)CCCN2C(=O)C1CCCCO1` (single isomer, unassigned) [Example 161, N-(4-fluorophenyl)-2-[5-(oxane-2-carbonyl)-5,6,7,8-tetrahydro-1,5-naphthyridin-2-yl]propanamide], for which the IC50 worked out at 5.6 nM. Turning to `O=C(OC1CC1)N1CCCc2nc(C3(C(=O)Nc4ccc(Cl)cc4)COC3)ccc21` [compound 398, cyclopropyl 6-(3-((4-chlorophenyl)carbamoyl)oxetan-3-yl)-3,4-dihydro-1,5-naphthyridine-1(2H)-carboxylate], the IC50 is 1.48 nM. Turning to `C[C@@H](NC(=O)c1ccc(F)cc1)c1ccc2c(n1)CCCN2C(=O)[C@H]1CCOC1` [Example 131, 4-fluoro-N-((R)-1-(5-((S)-tetrahydrofuran-3-carbonyl)-5,6,7,8-tetrahydro-1,5-naphthyridin-2-yl)ethyl)benzamide], the IC50 was found to be 356 nM.

On to `O=C(NC1(c2ccc3c(n2)CCCN3c2ccncn2)CC1)c1ccc(F)cc1` [Example 246, 4-fluoro-N-(1-(5-(pyrimidin-4-yl)-5,6,7,8-tetrahydro-1,5-naphthyridin-2-yl)cyclopropyl)benzamide], for which the IC50 came out at 9.3 nM. With `CC(NC(=O)c1ccc(F)cc1)c1ccc2c(n1)CCCN2C(=O)C1(C)CCCCO1` (stereo not shown) [Example 136, 4-fluoro-N-{1-[5-(2-methyloxane-2-carbonyl)-5,6,7,8-tetrahydro-1,5-naphthyridin-2-yl]ethyl}benzamide], the IC50 was determined as 540 nM. With `Cc1cc(C(=O)NCc2ccc3c(c2)CCCN3C(=O)c2cccc(Cl)c2)no1` [Example 22, N-{[1-(3-chlorobenzene-1-carbonyl)-1,2,3,4-tetrahydroquinolin-6-yl]methyl}-5-methyl-1,2-oxazole-3-carboxamide], the half-maximal inhibitory concentration (IC50) turned out to be 45 nM.

For the compound `COC(=O)N1CCCc2nc(C3(C(=O)Nc4ccc(F)cc4)CCC3)ccc21` [Example 216, methyl 6-{1-[(4-fluorophenyl)carbamoyl]cyclobutyl}-3,4-dihydro-1,5-naphthyridine-1(2H)-carboxylate], the IC50 was determined as 1.5 nM.

For the compound `CC(NC(=O)c1ccc(F)cc1)c1ccc2c(n1)CCCN2C(=O)[C@@H]1CCCCO1` (stereo partly drawn) [Example 132, 4-fluoro-N-(1-(5-((S)-tetrahydro-2H-pyran-2-carbonyl)-5,6,7,8-tetrahydro-1,5-naphthyridin-2-yl)ethyl)benzamide], the IC50 amounted to 48.7 nM. On the same count and under the same terms, the result for `CC(C(=O)Nc1ccc(Cl)cc1)c1ccc2c(c1)CC(F)CN2C(=O)c1cccc(Cl)c1` (single isomer, unassigned) [Example 258, 2-(1-(3-chlorobenzoyl)-3-fluoro-1,2,3,4-tetrahydroquinolin-6-yl)-N-(4-chlorophenyl)propanamide] reads 5.86 nM; that for `Cc1nc(C(=O)N2CCCc3cc([C@@H](C)C(=O)Nc4ccc(F)cn4)ccc32)no1` [Example 64, (2R)-N-(5-fluoropyridin-2-yl)-2-[1-(5-methyl-1,2,4-oxadiazole-3-carbonyl)-1,2,3,4-tetrahydroquinolin-6-yl]propanamide], 44.4 nM. As to `CC(C)CC(=O)N1CCCc2cc([C@H](C)NC(=O)c3ccc(Cl)cc3)ccc21` (single isomer, unassigned) [Example 27], the IC50 amounted to 42.2 nM.

`CCn1cc(C(=O)N2CCCc3cc(C4(C(=O)Nc5ccc(F)cc5)CCC4)ccc32)cn1` [Example 112, 1-[1-(1-ethyl-1H-pyrazole-4-carbonyl)-1,2,3,4-tetrahydroquinolin-6-yl]-N-(4-fluorophenyl)cyclobutane-1-carboxamide]: the IC50 was determined as 2.7 nM.

As for `C[C@H](C(=O)Nc1ccc(F)cc1)c1ccc2c(c1)CCCN2C(=O)C1CCC1` [Example 80, (2S)-2-[1-(cyclobutanecarbonyl)-1,2,3,4-tetrahydroquinolin-6-yl]-N-(4-fluorophenyl)propanamide], the IC50 was determined as 4.5 nM. Still for that read-out and setting: then `CC(C(=O)Nc1ccc(F)cc1)c1ccc2c(n1)CCCN2C(=O)C1CCCCO1` (single isomer, unassigned) [Example 159, N-(4-fluorophenyl)-2-[5-(oxane-2-carbonyl)-5,6,7,8-tetrahydro-1,5-naphthyridin-2-yl]propanamide], with 1.5 nM; and `COCC(=O)N1CCCc2cc(C(C)C(=O)Nc3ccc(F)cc3)ccc21` (stereo not shown) [Example 59, N-(4-fluorophenyl)-2-[1-(methoxyacetyl)-1,2,3,4-tetrahydroquinolin-6-yl]propanamide], with 20 nM.

The same test, now with this note: read-out: Hela IC50.
As for `CC(NC(=O)c1cccc(C#N)c1)c1ccc2c(n1)CCCN2C(=O)OC1CC1` (stereo not shown) [Example 335, cyclopropyl 6-(1-(3-cyanobenzamido)ethyl)-3,4-dihydro-1,5-naphthyridine-1(2H)-carboxylate], the IC50 turned out to be 5700 nM. On the same count and under the same terms, then `CC(C(=O)Nc1ccc(F)cc1)c1ccc2c(n1)CCCN2c1ccnc(C2CC2)n1` (stereo not shown) [Example 367, 2-(5-(2-cyclopropylpyrimidin-4-yl)-5,6,7,8-tetrahydro-1,5-naphthyridin-2-yl)-N-(4-fluorophenyl)propanamide], with 1.81 nM; and `COc1cc(N2CCCc3nc(C(C)NC(=O)c4ccc(F)cc4)ccc32)ncn1` (stereo not shown) [Example 379, 4-fluoro-N-(1-(5-(6-methoxypyrimidin-4-yl)-5,6,7,8-tetrahydro-1,5-naphthyridin-2-yl)ethyl)benzamide], with 13 nM. Take `Cc1nccc(N2CCCc3nc(C(C)C(=O)Nc4ccc(F)cc4)ccc32)n1` (stereo not shown) [Example 372, N-(4-fluorophenyl)-2-(5-(2-methylpyrimidin-4-yl)-5,6,7,8-tetrahydro-1,5-naphthyridin-2-yl)propanamide]: the half-inhibitory concentration (IC50) was determined as 5.34 nM.

As to `C[C@H](NC(=O)c1ccc(F)cc1)c1ccc2c(n1)CCCN2c1cccc(=O)[nH]1` [Example 386, (S)-2-(1-(4-fluorobenzamido)ethyl)-5-(6-oxo-1,6-dihydropyridin-2-yl)-5,6,7,8-tetrahydro-1,5-naphthyridin-1-ium 2,2,2-trifluoroacetate], the IC50 stood at 41.4 nM. Turning to `CC(NC(=O)c1ccc(F)cc1)c1ccc2c(n1)CCCN2C(=O)OCCN(C)C` (stereo not shown) [Example 329, 2-(dimethylamino)ethyl 6-(1-(4-fluorobenzamido)ethyl)-3,4-dihydro-1,5-naphthyridine-1(2H)-carboxylate], the IC50 is 2200 nM. Regarding `C[C@H](NC(=O)c1ccc(F)cc1)c1ccc2c(n1)CCCN2c1cccc(F)n1` [Example 387, (S)-4-fluoro-N-(1-(5-(6-fluoropyridin-2-yl)-5,6,7,8-tetrahydro-1,5-naphthyridin-2-yl)ethyl)benzamide], the 50% inhibitory concentration (IC50) stood at 25.7 nM.

As for `CC(NC(=O)c1ccc(C#N)cc1)c1ccc2c(n1)CCCN2C(=O)OC1CC1` (stereo not shown) [Example 337, cyclopropyl 6-(1-(4-cyanobenzamido)ethyl)-3,4-dihydro-1,5-naphthyridine-1(2H)-carboxylate], the IC50 was 88.2 nM. As for `COc1cccc(N2CCCc3nc(C(C)NC(=O)c4ccc(Cl)cc4)ccc32)n1` (stereo not shown) [Example 352, 4-chloro-N-(1-(5-(6-methoxypyridin-2-yl)-5,6,7,8-tetrahydro-1,5-naphthyridin-2-yl)ethyl)benzamide], the IC50 was 4.01 nM.

As to `CC(NC(=O)c1ccc(F)cc1)c1ccc2c(n1)CCCN2c1cc(C#N)ccn1` (stereo not shown) [Example 378, N-(1-(5-(4-cyanopyridin-2-yl)-5,6,7,8-tetrahydro-1,5-naphthyridin-2-yl)ethyl)-4-fluorobenzamide], the IC50 came out at 352 nM.
